From US5750540A, “1,4-di-substituted piperidine derivatives” (Banyu Pharmaceutical Co., Ltd., priority 1995, dated 1998)

Experiments:
[1] = target: T1, airway M3 receptors (trachea) (Rattus norvegicus, UniProt P08483); experiment: Antagonism against airway M3 receptors in an isolated rat trachea
T1 construct: the trachea was excised; from tissue; host or cells: isolated rat trachea
Protocol: 3) Tests for antagonism against the airway M3 receptors in an isolated rat trachea
These tests were performed according to an ordinary method. A male SD strain rat (weighing 300-500 g) was killed by exsanguination, and the trachea was excised. Annular segments (2 mm wide) were cut out from the trachea and cut open at the anterior cartilage part to make transversely sectioned trachea preparations. A preparation was suspended in a Magnus tube filled with 5 ml of Krebs-Henseleit nutrient solution (gassed with 95% O2 -5% CO2 and kept at 32° C.) with an initial tension of 1.0 g and a resting tension of 0.6 g. The tension of the preparation was recorded isometrically. After being equilibrated for an hour, the preparation was made to contract twice by treatment with 10^-4 M carbachol, and the second contraction induced by carbachol was used as the reference contraction. After the preparation was washed with fresh solution to make a return to the base line, a test compound was administered thereto (or no treatment was made). Ten minutes later, carbachol (10^-8 to 10^-3 M) was cumulatively administered in three-fold increasing doses to obtain a dose-response curve. The dose-response curve was constructed by expressing responses as percentages based on the reference contraction of the preparation. The antagonistic potency (KB value) of the test compound (i.e., a compound in accordance with the present invention) was determined from the degree of shift of the dose-response curve obtained by treatment with the test compound.

[2] = target: T2, M2 receptors (right atrium) (Rattus norvegicus, UniProt P10980); experiment: Antagonism against M2 receptors in an isolated rat right atrium; settings: in vitro, agonist carbachol
T2 construct: the right atrium was excised; from tissue; host or cells: isolated rat right atrium
T2 sequence (P10980 1-466): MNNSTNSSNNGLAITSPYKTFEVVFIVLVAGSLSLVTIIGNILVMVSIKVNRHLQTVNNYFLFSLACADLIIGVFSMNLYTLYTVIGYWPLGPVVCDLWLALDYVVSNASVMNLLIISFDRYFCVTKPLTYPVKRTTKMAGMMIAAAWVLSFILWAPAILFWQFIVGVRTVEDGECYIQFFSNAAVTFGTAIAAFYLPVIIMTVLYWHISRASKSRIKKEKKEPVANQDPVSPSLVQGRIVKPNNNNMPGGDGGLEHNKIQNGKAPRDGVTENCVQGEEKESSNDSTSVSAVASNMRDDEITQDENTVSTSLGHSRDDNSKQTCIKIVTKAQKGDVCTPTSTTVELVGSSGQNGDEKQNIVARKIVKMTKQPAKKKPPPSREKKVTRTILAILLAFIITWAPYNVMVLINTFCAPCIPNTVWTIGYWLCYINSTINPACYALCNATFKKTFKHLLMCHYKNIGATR
Protocol: 2) Tests for antagonism against the M2 receptors in an isolated rat right atrium
These tests were performed according to an ordinary method. A male SD strain rat (weighing 300-500 g) was killed by exsanguination, and the right atrium was excised. This preparation was isometrically suspended in a Magnus tube filled with 20 ml of Krebs-Henseleit nutrient solution (gassed with 95% O2 -5% CO2 and kept at 32° C.) with an initial tension of 0.5 g. The heart rate was recorded with a heart rate counter. After the preparation was equilibrated for 30 minutes, carbachol (10^-9 to 10^-6 M) was cumulatively administered from the lowermost concentration in three-fold increasing doses. Thus, a decrease in heart rate was measured to obtain a dose-response curve for the control experiment. After the preparation was washed with fresh solution to restore the heart rate, a test compound was administered thereto. Ten minutes later, carbachol was cumulatively administered again. Responses to carbachol were expressed as percentages based on the heart rate before administration of carbachol. The antagonistic potency (KB value) of the test compound (i.e., a compound in accordance with the present invention) was determined from the degree of shift of the dose-response curve obtained by treatment with the test compound.

muscarinic M3 receptor = muscarinic M3 receptor (Rattus norvegicus, UniProt P08483); experiment: in vivo; set-up: from tissue; host or cells: living rat, airways; settings: iv, 5 min, read-out: Airway contraction ID50
Chain of muscarinic M3 receptor (P08483 whole entry): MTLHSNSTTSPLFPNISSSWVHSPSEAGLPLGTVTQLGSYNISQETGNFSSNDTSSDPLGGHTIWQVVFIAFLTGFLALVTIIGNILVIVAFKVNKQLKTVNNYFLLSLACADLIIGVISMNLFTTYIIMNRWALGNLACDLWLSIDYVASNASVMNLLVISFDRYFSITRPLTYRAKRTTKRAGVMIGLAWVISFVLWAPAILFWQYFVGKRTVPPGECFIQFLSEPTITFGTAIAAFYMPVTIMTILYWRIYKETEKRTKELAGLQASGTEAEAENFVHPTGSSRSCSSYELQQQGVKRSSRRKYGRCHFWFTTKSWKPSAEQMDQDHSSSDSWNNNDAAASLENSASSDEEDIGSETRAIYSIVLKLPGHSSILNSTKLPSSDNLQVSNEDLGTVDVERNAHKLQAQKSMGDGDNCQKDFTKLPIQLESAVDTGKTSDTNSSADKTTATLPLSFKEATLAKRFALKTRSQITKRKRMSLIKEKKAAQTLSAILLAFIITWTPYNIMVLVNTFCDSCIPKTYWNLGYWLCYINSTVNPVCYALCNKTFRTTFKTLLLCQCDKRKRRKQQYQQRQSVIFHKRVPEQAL
Protocol: Tests for antagonism against muscarinic M3 receptor (in vivo)
1) Tests for bronchodilation in rats
Eight- to eleven-weeks-old male rats of the Sprague-Dawley strain, weighing 300-400 g, were anesthetized with urethane (750 mg/kg, i.p.) and a-chloralose (37.5 mg/kg, i.p.). A bronchus was intubated, and the right jugular vein was cannulated for drug administration. […] To evoke an increase in airway resistance, acetylcholine (50 μg/kg, i.v.) was administered to the animals. Mean values for the acetylcholine-induced increase in airway resistance as measured five minutes before (control) and five minutes after test compound administration were calculated and the results were expressed as percentages of the control response. The ID50 value was calculated from the dose-response curve of the test compound using probit analysis and defined as the drug dose that inhibited the acetylcholine-induced increase in airway resistance in the control group by 50 %.

bladder M3 receptors = target: T3, bladder M3 receptors (Rattus norvegicus, UniProt P08483); experiment: Antagonism against bladder M3 receptors in an isolated rat bladder; settings: in vitro, agonist carbachol
T3 construct: the bladder was excised; from tissue; host or cells: isolated rat bladder
T3 sequence (P08483 whole entry): as above
Protocol: 5) Tests for antagonism against the bladder M3 receptors in an isolated rat bladder
These tests were performed according to an ordinary method. A male SD strain rat (weighing 200-400 g) was killed by exsanguination, and the bladder was excised. This bladder axially cut into eight parts to make bladder preparations. A preparation was suspended in a Magnus tube filled with 5 ml of Krebs-Henseleit nutrient solution (gassed with 95% O2 -5% CO2 and kept at 32° C.) with an initial tension of 0.5 g. The tension of the preparation was recorded isometrically. After being equilibrated for an hour, the preparation was made to contract twice by treatment with 10^-4 M carbachol, and the second contraction induced by carbachol was used as the reference contraction. After the preparation was washed with fresh solution to make a return to the base line, a test compound was administered thereto (or no treatment was made). Ten minutes later, carbachol (10^-8 to 10^-3 M) was cumulatively administered from the lower-most concentration in three-fold increasing doses to obtain a dose-response curve. The dose-response curve was constructed by expressing responses as percentages based on the reference contraction of the preparation. The antagonistic potency (KB value) of the test compound was determined from the degree of shift of the dose-response curve obtained by treatment with the test compound.

T1 sequence (P08483 whole entry): as above

CC(C)=CCCN1CCC(NC(=O)C(O)(c2ccccc2)C2CCC2)CC1 (stereo not drawn) [Example 1, N-[1-(4-methyl-3-pentenyl)-piperidin-4-yl]-2-cyclobutyl-2-hydroxy-2-phenylacetamide]
Kb ([1]; in vitro, isolated rat trachea, agonist carbachol): 0.019 µM
M2/M3 * ([1]; ratio of KB, right atrium M2 over trachea M3 (* Trachea M3)): 79
M1/M3 * ([1]; ratio of KB, vas deferens M1 over trachea M3 (* Trachea M3)): 6.3
Kb [2]: 1.5 µM
ED50 (muscarinic M3 receptor): 0.023 mg/kg
Kb (bladder M3 receptors): 0.031 µM
